According to ChEMBL document CHEMBL1201862, “PubChem BioAssay data set” (2004):
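Five compound concentrations were applied to cells in 96-well plates for 48 hours; endpoints were derived by simple linear interpolation of the resulting dose-response curve. GI50 marks 50% less growth.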 Active and inactive are the calls of the source. Cut-off read from the data, not from the text of the source: active = GI50 up to about 1.1 µM and inactive = higher.

Legend:
Test in all cases: NCI tumour cell line growth inhibition, 48 h
[1] = test system: 786-0
[2] = test system: A498
[3] = test system: A549
[4] = test system: ACHN
[5] = test system: COLO 205
[6] = test system: DLD-1
[7] = test system: DMS-114
[8] = test system: DMS-273
[9] = test system: EKVX
[10] = test system: HCC 2998
[11] = test system: HCT-116
[12] = test system: HCT-15
[13] = test system: HL-60
[14] = test system: HOP-18
[15] = test system: HOP-62
[16] = test system: HOP-92
[17] = test system: HT-29
[18] = test system: IGROV-1
[19] = test system: K562
[20] = test system: KM-20L2
[21] = test system: KM12
[22] = test system: LOX IMVI
[23] = test system: LXFL 529
[24] = test system: M14
[25] = test system: M19-MEL
[26] = test system: Malme-3M
[27] = test system: NCI-H226
[28] = test system: NCI-H23
[29] = test system: NCI-H460
[30] = test system: NCI-H522
[31] = test system: OVCAR-3
[32] = test system: OVCAR-4
[33] = test system: OVCAR-5
[34] = test system: OVCAR-8
[35] = test system: RXF 393
[36] = test system: RXF 631
[37] = test system: SF-268
[38] = test system: SF-295
[39] = test system: SF-539
[40] = test system: SK-MEL-28
[41] = test system: SK-MEL-2
[42] = test system: SK-MEL-5
[43] = test system: SK-OV-3
[44] = test system: SN12C
[45] = test system: SNB-19
[46] = test system: SNB-75
[47] = test system: SNB-78
[48] = test system: SR
[49] = test system: SW-620
[50] = test system: TK-10
[51] = test system: U-251
[52] = test system: UACC-257
[53] = test system: UACC-62
[54] = test system: UO-31
[55] = test system: XF498
[56] = test system: CAKI-1
[57] = test system: CCRF-CEM
[58] = test system: MOLT-4
[59] = test system: RPMI-8226

Measured: GI50

COC(=O)CCC(NC(=S)N/N=C/c1cccs1)C(=O)OC (configuration not stated)
inactive: [1] > 100 µM | [2] > 100 µM | [3] > 100 µM | [4] > 100 µM | [5] > 100 µM | [6] > 100 µM | [7] > 100 µM | [8] > 100 µM | [9] > 100 µM | [10] > 100 µM | [11] > 100 µM | [13] > 100 µM | [14] > 100 µM | [15] > 100 µM | [16] > 100 µM | [17] > 100 µM | [18] > 100 µM | [19] > 100 µM | [20] > 100 µM | [21] > 100 µM | [22] > 100 µM | [23] > 100 µM | [24] > 100 µM | [25] > 100 µM | [26] > 100 µM | [27] > 100 µM | [28] > 100 µM | [29] > 100 µM | [30] > 100 µM | [31] > 100 µM | [32] > 100 µM | [33] > 100 µM | [34] > 100 µM | [35] > 100 µM | [36] > 100 µM | [37] > 100 µM | [38] > 100 µM | [39] > 100 µM | [40] > 100 µM | [41] > 100 µM | [42] > 100 µM | [43] > 100 µM | [44] > 100 µM | [45] > 100 µM | [46] > 100 µM | [47] > 100 µM | [48] > 100 µM | [49] > 100 µM | [50] > 100 µM | [51] > 100 µM | [52] > 100 µM | [53] > 100 µM | [54] > 100 µM | [55] > 100 µM
> 100 µM: [12]

CC(C(=O)c1ccc(Cl)cc1)C1OC(=O)C(Cl)=C1Cl (configuration not stated)
21.5 µM: [12]
inactive: [1] 21.2 µM | [2] 41.5 µM | [3] > 100 µM | [4] 41.3 µM | [56] > 10 µM | [57] 19 µM | [5] 23.9 µM | [6] 21.6 µM | [7] 26.2 µM | [9] 39.4 µM | [10] 26.6 µM | [13] 19 µM | [14] 50.4 µM | [15] > 100 µM | [17] 31.6 µM | [18] 29.3 µM | [19] 25.2 µM | [20] 86.1 µM | [21] 33.9 µM | [22] 24.3 µM | [23] 19.8 µM | [24] 34.1 µM | [25] 23 µM | [58] 24.8 µM | [26] 21.4 µM | [27] 68.2 µM | [28] 25.2 µM | [29] > 100 µM | [30] 18.9 µM | [31] 28.5 µM | [32] 25.7 µM | [33] > 100 µM | [34] 32.5 µM | [59] 26.9 µM | [35] 19.7 µM | [36] > 100 µM | [37] 30.3 µM | [38] > 100 µM | [39] 27.6 µM | [40] 27.3 µM | [41] 23.2 µM | [42] 37.9 µM | [43] > 100 µM | [44] 24.6 µM | [45] 85.1 µM | [46] 22.1 µM | [49] 34.5 µM | [50] 37.2 µM | [51] > 100 µM | [52] 35.6 µM | [53] 19.7 µM | [54] 95.9 µM | [55] 20.5 µM

O=C1/C(=C/c2ccccc2)CNC/C1=C\c1ccccc1
inactive: [1] 1.57 µM | [2] 1.97 µM | [3] 2.28 µM | [4] 2.05 µM | [56] 5.65 µM | [57] 1.37 µM | [5] 1.58 µM | [7] 2.11 µM | [9] 4.78 µM | [10] 1.87 µM | [14] 11 µM | [15] 2.84 µM | [16] 8.13 µM | [18] 1.87 µM | [20] 1.39 µM | [23] 1.49 µM | [24] 1.81 µM | [26] 3.26 µM | [27] 2.42 µM | [28] 1.83 µM | [29] 1.36 µM | [31] 1.42 µM | [32] 1.43 µM | [33] 2.44 µM | [34] 1.71 µM | [36] 2.91 µM | [37] 2.2 µM | [38] 2.07 µM | [39] 1.56 µM | [40] 1.92 µM | [41] 3.21 µM | [42] 1.91 µM | [43] 2.22 µM | [44] 1.69 µM | [45] 3.28 µM | [46] 3.38 µM | [47] 10.4 µM | [50] 2.4 µM | [52] 5.51 µM | [53] 1.76 µM | [54] 2.02 µM | [55] 2.32 µM
0.612 µM: [12]
active: [6] 0.329 µM | [8] 0.721 µM | [11] 0.184 µM | [13] 0.406 µM | [17] 0.841 µM | [19] 0.52 µM | [21] 0.962 µM | [22] 0.643 µM | [25] 1.02 µM | [58] 0.429 µM | [30] 1.02 µM | [59] 0.221 µM | [48] 0.659 µM | [49] 0.441 µM | [51] 0.36 µM
